In ChEMBL document CHEMBL1143673, “Benzothiophene selective estrogen receptor modulators with modulated oxidative activity and receptor affinity” (J Med Chem, 2007):
pIC50: −log10 of the molar value.

Columns and labels:
[1] = biological target: T1, Estrogen receptor beta (Homo sapiens, UniProt Q92731); assay: Displacement of [3H]estradiol from human recombinant ERbeta relative to estradiol
[2] = biological target: T1, Estrogen receptor beta; assay: Displacement of [3H]estradiol from human recombinant ERbeta
[3] = biological target: T2, Estrogen receptor (Homo sapiens, UniProt P03372)
T2 sequence (P03372 whole entry): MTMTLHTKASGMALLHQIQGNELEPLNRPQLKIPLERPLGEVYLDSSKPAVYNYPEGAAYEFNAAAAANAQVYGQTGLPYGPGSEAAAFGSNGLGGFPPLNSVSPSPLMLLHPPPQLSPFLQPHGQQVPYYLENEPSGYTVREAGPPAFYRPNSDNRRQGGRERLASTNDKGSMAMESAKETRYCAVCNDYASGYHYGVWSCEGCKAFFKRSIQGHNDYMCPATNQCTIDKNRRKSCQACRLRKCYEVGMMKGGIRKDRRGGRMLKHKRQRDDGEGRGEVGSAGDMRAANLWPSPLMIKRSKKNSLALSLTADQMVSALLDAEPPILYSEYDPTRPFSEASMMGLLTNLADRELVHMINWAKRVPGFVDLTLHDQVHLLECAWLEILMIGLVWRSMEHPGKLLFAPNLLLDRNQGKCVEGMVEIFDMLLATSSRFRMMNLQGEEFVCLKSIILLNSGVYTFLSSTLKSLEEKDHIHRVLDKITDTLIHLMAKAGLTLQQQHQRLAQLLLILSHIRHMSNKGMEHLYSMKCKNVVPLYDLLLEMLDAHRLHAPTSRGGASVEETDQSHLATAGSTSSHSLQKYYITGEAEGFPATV
Description: Displacement of [3H]estradiol from human recombinant ERalpha

[4] = organism: Homo sapiens; assay: Selectivity for human ERalpha over human ERbeta

T1 sequence (Q92731 whole entry): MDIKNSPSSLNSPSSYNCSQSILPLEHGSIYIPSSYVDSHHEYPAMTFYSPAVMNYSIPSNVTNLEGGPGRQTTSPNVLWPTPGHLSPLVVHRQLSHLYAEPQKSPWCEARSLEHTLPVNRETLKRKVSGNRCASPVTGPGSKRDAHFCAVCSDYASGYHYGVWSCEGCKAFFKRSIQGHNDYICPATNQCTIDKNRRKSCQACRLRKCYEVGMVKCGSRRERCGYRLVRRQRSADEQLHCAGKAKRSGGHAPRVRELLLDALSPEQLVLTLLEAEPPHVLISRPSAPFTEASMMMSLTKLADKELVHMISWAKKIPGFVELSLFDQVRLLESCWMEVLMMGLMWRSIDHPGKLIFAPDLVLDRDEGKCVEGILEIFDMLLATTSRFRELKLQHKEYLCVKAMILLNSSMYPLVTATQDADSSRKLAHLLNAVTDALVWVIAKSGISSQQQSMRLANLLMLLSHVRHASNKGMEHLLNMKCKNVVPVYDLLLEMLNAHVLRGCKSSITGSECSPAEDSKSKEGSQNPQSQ

Row | Compound | relative binding affinity (RBA) [1] | pIC50 [2] | pIC50 [3] | Ratio [4]
1 | Oc1ccc2c(Oc3ccc(OCCN4CCCCC4)cc3)c(-c3ccc(NCCCl)cc3)sc2c1 | < 0.01 | < 5.80 | 7.45 | > 50
2 | Oc1ccc2c(Oc3ccc(OCCN4CCCCC4)cc3)c(-c3ccc(Br)cc3)sc2c1 | 0.25 | 7.18 | 7.57 | 2.8
3 | CS(=O)(=O)c1ccc(-c2sc3cc(O)ccc3c2Oc2ccc(OCCN3CCCCC3)cc2)cc1 | 0.009 | 5.74 | 7.57 | 79
4 | Nc1ccc(-c2sc3cc(O)ccc3c2Oc2ccc(OCCN3CCCCC3)cc2)cc1 | 0.34 | 7.31 | 7.71 | 2.8
5 | Oc1ccc2c(Oc3ccc(OCCN4CCCCC4)cc3)c(-c3ccccc3)sc2c1 | 1 | 7.79 | 7.96 | 1.7

Further lines, results first:

Row | relative binding affinity (RBA) [1] | pIC50 [2] | pIC50 [3] | Ratio [4] | Compound
6 | 1.77 | 8.02 | – | – | Oc1ccc(-c2sc3cc(O)ccc3c2Oc2ccc(OCCN3CCCCC3)cc2)cc1
7 | 0.68 | 7.55 | 7.76 | 1.6 | Oc1ccc2c(Oc3ccc(OCCN4CCCCC4)cc3)c(-c3ccc(F)cc3)sc2c1
8 | 0.007 | 5.63 | 6.18 | 4.3 | O=C(CCl)Nc1ccc(-c2sc3cc(O)ccc3c2Oc2ccc(OCCN3CCCCC3)cc2)cc1
9 | 0.25 | – | – | – | COc1ccc(-c2sc3cc(O)ccc3c2Oc2ccc(OCCN3CCCCC3)cc2)cc1
